In publication PMC5727842, “Antioxidant and Antidiabetic Effects of Flavonoids: A Structure-Activity Relationship Based Study” (BioMed Research International, 2017):

Experiments:
[1] = Rapid screening of radical scavenging activity by dot blot assay (DPPH staining); details: silica sheet stained with DPPH in MeOH, dilutions from 1000 μg/mL
Protocol: An aliquot (20 μL) of each dilution of each group was carefully loaded on a […] TLC plate and allowed to dry for 10 min. Drops of each sample were loaded in the order of decreased concentration along the 16 columns. The staining of the silica plate was based on the procedure of Soler-Rivas et al.. […] The intensity of the yellow color depends upon the amount and nature of radical scavenger present in the flavonoids.

[2] = molecular target: T1, xanthine oxidase from buttermilk (Bos taurus, UniProt P80457); test: Xanthine oxidase inhibitory assay (XOI); type: biochemical; details: for xanthine oxidase inhibitory effect (in words): discussion; for IC50: xanthine oxidase inhibition, 295 nm, mean ± SEM (n = 3), NA: not active
T1 construct: 0.3 U/mL enzymes (xanthine oxidase from buttermilk); purchased Sigma-Aldrich (Singapore); host or cells: buttermilk (natural source)
Protocol: XO catalyzes the oxidation of hypoxanthine to xanthine and subsequently to uric acid. The inhibition of XO reduces both vascular oxidative stress and circulating levels of uric acid. This assay is based on the fact that the superoxide anions are generated by the xanthine. The xanthine oxidase inhibitory activity was measured spectrophotometrically (Tecan NanoQuant Infinite M200, Switzerland) at 295 nm under aerobic condition with slight modification. The reaction mixture contained 50 mM phosphate buffer (pH 7.5), 0.15 mM xanthine (substrate), and 0.3 U/mL enzymes (xanthine oxidase from buttermilk). Samples were prepared by dissolving 1 mg in 5% DMSO in MeOH which gives sample concentration of 144.0 μg/mL in assay. […] The absorption increment at 295 nm indicates the formation of […] of uric acid/min at 25°C. […] All determination was done in triplicate and half maximal concentration (IC50) values were calculated from the percentage of inhibition. XO inhibition activity was expressed as the percentage inhibition of XO as follows:(3) % of inhibition=AbsA−B−C−D/AbsA−B×100, where A is the negative control with B as the blank of A which is without the enzyme and the sample while C is the activity of the sample with enzyme with D as the blank of the sample without enzyme.

T1 sequence (P80457 whole entry): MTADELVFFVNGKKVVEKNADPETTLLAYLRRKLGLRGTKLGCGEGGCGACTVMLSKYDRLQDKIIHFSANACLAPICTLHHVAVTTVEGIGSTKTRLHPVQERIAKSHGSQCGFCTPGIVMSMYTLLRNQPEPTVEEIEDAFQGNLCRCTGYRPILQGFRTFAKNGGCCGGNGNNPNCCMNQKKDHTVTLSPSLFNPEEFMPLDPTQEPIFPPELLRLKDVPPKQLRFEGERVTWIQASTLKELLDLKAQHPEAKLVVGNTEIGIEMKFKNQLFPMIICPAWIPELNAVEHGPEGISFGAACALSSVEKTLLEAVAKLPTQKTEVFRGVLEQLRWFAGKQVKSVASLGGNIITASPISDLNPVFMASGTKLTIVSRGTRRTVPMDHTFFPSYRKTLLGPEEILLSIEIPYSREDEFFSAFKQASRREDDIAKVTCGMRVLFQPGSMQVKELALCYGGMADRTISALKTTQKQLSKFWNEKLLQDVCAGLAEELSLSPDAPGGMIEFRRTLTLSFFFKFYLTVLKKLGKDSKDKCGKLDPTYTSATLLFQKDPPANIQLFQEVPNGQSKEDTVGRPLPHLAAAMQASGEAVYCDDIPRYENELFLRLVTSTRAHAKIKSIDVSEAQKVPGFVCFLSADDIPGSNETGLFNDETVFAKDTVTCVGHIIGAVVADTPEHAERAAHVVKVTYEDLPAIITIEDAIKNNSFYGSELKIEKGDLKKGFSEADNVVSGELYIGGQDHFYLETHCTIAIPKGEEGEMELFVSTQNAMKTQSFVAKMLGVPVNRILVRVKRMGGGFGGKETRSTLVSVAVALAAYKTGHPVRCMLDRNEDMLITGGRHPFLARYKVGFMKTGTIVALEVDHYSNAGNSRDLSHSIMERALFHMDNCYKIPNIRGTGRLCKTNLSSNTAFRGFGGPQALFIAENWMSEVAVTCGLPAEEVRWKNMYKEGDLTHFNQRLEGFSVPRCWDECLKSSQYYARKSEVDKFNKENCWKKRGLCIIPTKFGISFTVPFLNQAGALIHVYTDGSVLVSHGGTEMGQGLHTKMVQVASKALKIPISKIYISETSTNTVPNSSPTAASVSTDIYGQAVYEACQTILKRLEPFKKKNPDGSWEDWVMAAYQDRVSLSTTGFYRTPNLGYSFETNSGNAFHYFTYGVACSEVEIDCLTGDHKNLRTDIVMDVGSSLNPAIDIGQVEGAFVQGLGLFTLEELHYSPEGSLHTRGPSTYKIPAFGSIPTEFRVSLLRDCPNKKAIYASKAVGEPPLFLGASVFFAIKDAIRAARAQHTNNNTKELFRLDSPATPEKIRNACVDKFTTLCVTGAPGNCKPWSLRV

| SMILES | radical scavenging activity by dot blot (intensity of yellow spots) [1] | xanthine oxidase inhibitory effect (in words) [2] | IC50 [2] [µM] |
| --- | --- | --- | --- |
| COc1cc(O)c2c(=O)cc(-c3ccccc3)oc2c1 [Techtochrysin, 5-Hydroxy-7-methoxyflavone] | intermediate radical scavenging activity | low xanthine oxidase inhibitory activity | > 373 |
| O=c1cc(-c2ccc(O)c(O)c2)oc2c(O)c(O)cc(O)c12 [Hypolaetin, 3′,4′,5,7,8-Pentahydroxyflavone] | strong radical scavenging activity | low xanthine oxidase inhibitory activity | > 331 |
